In ChEMBL document CHEMBL2401688, “Phosphinic acid-based inhibitors of tubulin polyglutamylases” (Bioorg Med Chem Lett, 2013) one finds IC50 and inhibition data, which are given here for 5 compounds.

Activity calls are given as the source filed them. The calls are words filed in the database; no cut-off is given here.

The nature of assay [1]: Inhibition of Escherichia coli MurD ligase.
Assay [2] deals with T1, Tubulin--tyrosine ligase (Homo sapiens) (UniProt Q8NG68).
T1 sequence (whole entry): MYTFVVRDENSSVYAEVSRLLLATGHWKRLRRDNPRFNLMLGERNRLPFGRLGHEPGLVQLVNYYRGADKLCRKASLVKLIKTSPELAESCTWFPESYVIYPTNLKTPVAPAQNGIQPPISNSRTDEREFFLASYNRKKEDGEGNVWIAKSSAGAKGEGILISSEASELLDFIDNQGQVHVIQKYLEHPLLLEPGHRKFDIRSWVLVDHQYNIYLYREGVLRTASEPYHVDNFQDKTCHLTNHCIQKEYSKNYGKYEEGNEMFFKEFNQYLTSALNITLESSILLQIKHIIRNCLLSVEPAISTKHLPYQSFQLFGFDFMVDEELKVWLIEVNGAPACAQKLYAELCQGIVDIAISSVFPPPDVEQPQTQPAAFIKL
Put plainly: Inhibition of TTL (unknown origin).

Assay [3] deals with T2, Tubulin polyglutamylase TTLL7 (Mus musculus, UniProt A4Q9F0).
T2 sequence (A4Q9F0 whole entry): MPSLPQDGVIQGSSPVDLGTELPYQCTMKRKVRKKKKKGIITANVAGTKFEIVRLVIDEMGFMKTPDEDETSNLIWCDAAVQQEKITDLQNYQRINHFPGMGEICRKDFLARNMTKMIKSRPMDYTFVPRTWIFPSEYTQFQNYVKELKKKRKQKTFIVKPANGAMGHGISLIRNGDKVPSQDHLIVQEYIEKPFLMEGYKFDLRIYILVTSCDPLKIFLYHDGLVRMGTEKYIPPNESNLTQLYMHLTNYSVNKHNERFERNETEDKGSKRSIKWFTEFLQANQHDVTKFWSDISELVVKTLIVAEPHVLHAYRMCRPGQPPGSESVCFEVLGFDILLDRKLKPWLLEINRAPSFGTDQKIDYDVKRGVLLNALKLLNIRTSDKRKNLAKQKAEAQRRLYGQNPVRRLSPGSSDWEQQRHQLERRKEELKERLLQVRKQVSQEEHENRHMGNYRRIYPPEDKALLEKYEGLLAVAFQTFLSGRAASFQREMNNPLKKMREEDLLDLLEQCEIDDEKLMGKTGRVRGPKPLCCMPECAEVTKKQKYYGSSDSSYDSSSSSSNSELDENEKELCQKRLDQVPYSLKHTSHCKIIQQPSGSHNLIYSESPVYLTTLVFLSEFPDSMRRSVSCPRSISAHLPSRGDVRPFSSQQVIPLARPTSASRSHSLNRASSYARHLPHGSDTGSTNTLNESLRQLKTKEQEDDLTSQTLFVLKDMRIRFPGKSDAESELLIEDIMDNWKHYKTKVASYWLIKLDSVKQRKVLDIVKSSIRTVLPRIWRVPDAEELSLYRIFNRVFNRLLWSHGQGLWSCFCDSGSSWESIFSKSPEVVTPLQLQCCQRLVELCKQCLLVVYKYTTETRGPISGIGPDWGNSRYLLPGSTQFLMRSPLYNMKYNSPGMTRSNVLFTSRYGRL
Put plainly: (§1) Inhibition of mouse recombinant N-terminal GST-tagged TTLL7-mediated Ac-DATAEEEGEFEEEAEEEVA glutamylation expressed in Escherichia coli Rosetta2 DE3 after 16 hrs by LC-MS analysis.

In assay [4] the target is T3, Tubulin polyglutamylase TTLL7 (Mus musculus) (UniProt A4Q9F0).
T3 sequence (whole entry): T2 sequence (A4Q9F0 whole entry)
The assay is described as §1.

In assay [1], `CC(NC(=O)CCCCCOP(=O)(O)OP(=O)(O)OC[C@H]1O[C@@H](n2ccc(=O)[nH]c2=O)[C@H](O)[C@@H]1O)P(=O)(O)CC(CCC(=O)O)C(=O)O` (stereo partly drawn) came in with an IC50 of 700 nM. Compound `CC(=O)N[C@H]1[C@@H](OP(=O)(O)OP(=O)(O)OC[C@H]2O[C@@H](n3ccc(=O)[nH]c3=O)[C@H](O)[C@@H]2O)O[C@H](CO)[C@@H](O)[C@@H]1O[C@H](C)C(=O)N[C@@H](C)P(=O)(O)CC(CCC(=O)O)C(=O)O` (stereo partly drawn) yielded an IC50 in assay [1] of 1 nM. For `CC(=O)NC(CCC(=O)O)P(=O)(O)CC(CCC(=O)O)C(=O)O` (mixture of isomers), the inhibition entry in assay [2] is “inactive”. The IC50 in assay [3] worked out at 150000 nM. Take `CC(=O)N[C@@H](CCP(=O)(O)CC(CCC(=O)O)C(=O)O)C(=O)O` (mixture of isomers): the inhibition result in assay [2] is “inactive”. Besides, the inhibition result in assay [4] is “Active”.

Take `CCNC(=O)[C@H](CCP(=O)(O)CC(CCC(=O)O)C(=O)O)NC(C)=O` (mixture of isomers): the inhibition entry in assay [2] was “inactive”. For the same compound, in assay [4], the inhibition entry is “Active”.

The IC50 is the midpoint of a concentration-inhibition curve.
